In US4461773A, “P-Oxooxazolidinylbenzene compounds as antibacterial agents” (E. I. DuPont de Nemours and Company, priority 1984, dated 1984):
Values after ≈ are worked out from the molar mass of the structure shown.

Columns and labels:
Staphylococcus aureus = assay: In vivo efficacy in mice infected intraperitoneally with Staphylococcus aureus (Table III); details: 4 h, mice, intraperitoneal infection, 5% hog gastric mucin, oral dosing at infection and four hours post-infection, Reed-Muench, read-out: ED50, S. auerus
Method: (§1) In-vivo efficacy determinations were performed by inoculating mice interaperitoneally with cultures of the infecting organism diluted to produce 90-100% mortality in control animals within seven days. The diluents used were trypticase soy broth for E. coli, Proteus sp. and Psuedomonas aeruginosa and 5% hog gastric mucin for Staphylococcus aureus infections. The compounds, dissolved or suspended in 0.25% methocel.cndot.H2 O were administered orally by intubation at the time of infection and again at four hours post-infection. Mortality was recorded daily until test termination and the 50 percent effective dose. ED50, was calculated by the Reed-Muench method (Reed, L. G. and Muench, H., "A simple method of estimating fifty percent end points." American Journal of Hygiene, 27, 1938, 493-497).

Clostridium sp. = assay: In vitro antibacterial spectrum, agar dilution for anaerobic bacteria (Table II); assay type: cell-based; details: 5 isolates
Method: (§2) The agar dilution method described by A. L. Barry ("The Antimicrobic Susceptibility Test: Principles and Practice", 1976, Lea and Febiger, Philadelphia, Pa.) with compound concentrations of 32 μg/ml to 0.06 μg/ml, was used to determine the inhibitory activity of l-4-[5-(hydroxymethyl)-2-oxooxazolidin-3-yl]benzenesulfonamide for anaerobic bacteria.

Gram - Anaerobic Cocci = assay: as above; assay type: cell-based; details: 7 isolates
Method: as §2

Fusobacterium sp. = assay: as above; assay type: cell-based; details: 4 isolates
Method: as §2

Bacteroides sp. = assay: as above; assay type: cell-based; details: 23 isolates
Method: as §2

E. Coli [1] = assay: In vitro broth microdilution minimal inhibitory concentration, E. Coli (Table I); assay type: cell-based; details: Escherichia coli; broth microdilution, Mueller-Hinton broth, 24 hour; read-out: MIC (minimal inhibitory concentration), E. Coli
Source text: (§3) A list is presented in Table I of analogs which exert an in-vitro antibacterial effect.

S. epidermidis = assay: In vitro broth microdilution minimal inhibitory concentration, S. epidermidis (Table I); assay type: cell-based; details: Staphylococcus epidermidis; broth microdilution, Mueller-Hinton broth, 24 hour; read-out: MIC (minimal inhibitory concentration), S. epidermidis
Source text: as §3

E. coli [2] = assay: In vivo efficacy in mice infected intraperitoneally with E. coli (Table III); details: Escherichia coli, 4 h; mice, intraperitoneal infection, trypticase soy broth; oral dosing at infection and four hours post-infection; Reed-Muench; read-out: ED50, E. Coli
Method: as §1

Serratia sp. = assay: In vitro antibacterial spectrum, agar dilution (Table II); assay type: cell-based; details: 44 isolates, 24-hour, 35° C.
Method: (§4) A summary of the in-vitro antibacterial spectrum of l-4-[5-(hydroxymethyl)-2-oxooxazolidin-3-yl]benzenesulfonamide, is shown in Table II. The minimal inhibitory concentrations for the aerobic and facultative anaerobic test isolates representing two gram-positive and eleven gram-negative genera were determined by an agar dilution method. The method is state of the art and is as follows. Mueller-Hinton agar plates are prepared containing two-fold compound concentrations ranging from 128 μg/ml to 1.0 μg/ml for the susceptibility testing of the bacterial strains except Neisseria gonorrhoea and Hemophilus sp. The latter organisms are tested using GC agar containing 1% Bacto-Supplement C (Difco Laboratories, Detroit, Mich.) and are incubated under 6% CO2. The agar plates are inoculated with a 0.001 ml calibrated loopful of bacterial inoculum diluted to contain 5×10^6 colony-forming units (CFU) per ml.

E. Coli [3] = assay: as above; assay type: cell-based; details: Escherichia coli, 86 isolates, 24-hour, 35° C.
Method: as §4

Proteus sp. = assay: as above; assay type: cell-based; details: 88 isolates, 24-hour, 35° C.
Method: as §4

Enterobacter sp. = assay: as above; assay type: cell-based; details: 41 isolates, 24-hour, 35° C.
Method: as §4

Staphylococci sp. = assay: as above; assay type: cell-based; details: 38 isolates, 24-hour, 35° C.
Method: as §4

Providencia sp. = assay: as above; assay type: cell-based; details: 12 isolates, 24-hour, 35° C.
Method: as §4

Neisseria sp. = assay: as above; assay type: cell-based; details: 43 isolates, 24-hour, 35° C.
Method: as §4

Klebsiella sp. = assay: as above; assay type: cell-based; details: 50 isolates, 24-hour, 35° C.
Method: as §4

Haemophilus sp. = assay: as above; assay type: cell-based; details: 4 isolates, GC agar, 6% CO2, 24-hour, 35° C.
Method: as §4

Pseudomonas sp. = assay: as above; assay type: cell-based; details: 79 isolates, 24-hour, 35° C.
Method: as §4

Streptococci sp. = assay: as above; assay type: cell-based; details: 14 isolates, 24-hour, 35° C.
Method: as §4

Salmonella sp. = assay: as above; assay type: cell-based; details: 6 isolates, 24-hour, 35° C.
Method: as §4

Shiqella sp. = assay: as above; assay type: cell-based; details: 24 h, read-out: MEAN MIC, Shiqella sp.
Method: as §4

In the case of `NS(=O)(=O)c1ccc(N2C[C@@H](CO)OC2=O)cc1` [Example 2, l-4-[5-(Hydroxymethyl)-2-oxooxazolidin-3-yl]benzenesulfonamide], the ED50 (Staphylococcus aureus) is reported as 17.1 mg/kg, the MIC (Clostridium sp.) is reported as 16.8 µg/mL (≈ 61.7 µM) and the MIC (Gram - Anaerobic Cocci) is reported as 6.1 µg/mL (≈ 22.4 µM). The MIC (Fusobacterium sp.) was 0.9 µg/mL (≈ 3.31 µM), the MIC (Bacteroides sp.) was at least 15.1 µg/mL and the MIC (E. Coli [1]) was 50 µg/mL (≈ 184 µM). It also gave an MIC (S. epidermidis) of 100 µg/mL (≈ 367 µM), an ED50 (E. coli [2]) of 13.2 mg/kg and an MIC (Serratia sp.) of at least 96 µg/mL. The MIC (E. Coli [3]) was 29.8 µg/mL (≈ 109 µM), the MIC (Proteus sp.) was 29.1 µg/mL (≈ 107 µM) and the MIC (Enterobacter sp.) was 58.5 µg/mL (≈ 215 µM). It also gave an MIC (Staphylococci sp.) of 22.3 µg/mL (≈ 81.9 µM), an MIC (Providencia sp.) of 41.3 µg/mL (≈ 152 µM) and an MIC (Neisseria sp.) of 12.3 µg/mL (≈ 45.2 µM). The MIC (Klebsiella sp.) was 39.4 µg/mL (≈ 145 µM), the MIC (Haemophilus sp.) was 32 µg/mL (≈ 118 µM) and the MIC (Pseudomonas sp.) was at least 117 µg/mL. For the same compound, the MIC (Streptococci sp.) was 7.7 µg/mL (≈ 28.3 µM), the MIC (Salmonella sp.) was 32 µg/mL (≈ 118 µM) and the MIC (Shiqella sp.) was 8 µg/mL (≈ 29.4 µM).
